Values of other authors in patent US20170049836A1, “COMPOSITIONS COMPRISING BOTANICALS, INCLUDING THE USE AND METHOD OF USE THEREOF” (FEM MED FORMULAS LIMITED PARTNERSHIP, priority 2010, published 2017).
Like-named read-outs stand apart in the source and are kept apart here.

Legend:
[1] = test system: ratio of 2-OHE to 16-αOHE
[2] = test system: estrogen receptor-positive breast cancer cells

## OCc1c[nH]c2ccccc12 [I3C, Indole-3-carbinol]
[1]; 17 of 20 women, 200 or 400 mg/day
  women with sustained increase in ratio of 2-OHE to 16-αOHE: 85%
[1]; 20 women, 400 mg daily
  average increase in 2-OHE:16-αOHE ratio: 65%
[1]; 200-400 mg, regular consumption, vast majority of women
  increase in 2-OHE:16-αOHE ratio, overall: approx. 60%
[1]; 200 or 400 mg/day, over the course of the trial
  average increase in ratio of 2-OHE to 16-αOHE: 44%
[1]; all 20 women, 300 or 400 mg, 4 weeks
  change in 2-OHE:16-αOHE ratio: significantly increased
[1]; non-obese women, same trial
  average increase in 2-OHE:16-αOHE ratio: 38%
[1]; obese women (four out of five), two-month period
  average increase in 2-OHE:16-αOHE ratio: 93%

## C[C@]12CC[C@@H]3c4cc(O)c(O)cc4CC[C@H]3[C@@H]1CCC2=O [2-OHE, 2-hydroxyestrone]
[2]
  effect on cell growth / proliferation: no effect on cell growth

## C[C@]12CC[C@@H]3c4ccc(O)cc4CC[C@H]3[C@@H]1C[C@@H](O)C2=O [16-αOHE, 16-αhydrxyestrone]
[2]
  effect on cell growth / proliferation: stimulates proliferation
